≈ marks a conversion by molar mass, not a printed value.
Columns and labels:
Experiment in all cases: Antifungal MIC, broth dilution
[1] = system: F. proliferatum ATCC 10052; type: cell-based, Fusarium proliferatum; conditions: end point 48 hours; for MIC50: Fusarium proliferatum, ATCC10052, RPMI 1640 with MOPS, read-out: Fp01 MIC50; for Fp01 MIC50: RPMI 1640 with MOPS
Protocol: (§1) The compounds of Formula 1 were tested for antifungal activity against Candida albicans, Aspergillus niger and Fusarium proliferatum. In vitro evaluation of antifungal activity was performed by determining the minimum inhibitory concentration (MIC) following standard methods (CLSI: Reference method for broth dilution antifungal susceptibility testing of yeasts; Approved standard, second edition M27-A2, 2002; CLSI: Reference method for broth dilution antifungal susceptibility testing of filamentous fungi; Approved standard M38-A, 2002). Anti-fungal susceptibility testing of these anti-fungal compounds was done by broth dilution method using RPMI 1640 medium with MOPS buffer. Known anti-fungal agents like fluconazole and amphotericin-B were used as positive control. End points were determined after 48 hours visually and by using spectrophotometer wherever necessary. Different dilutions were tried and various sets of experiments performed. The activity parameters are enumerated in Table 5.

A. fumigatus ATCC 46645 = type: cell-based; conditions: end point 48 hours; for MIC50: Aspergillus fumigatus, ATCC46645, RPMI 1640 with MOPS, read-out: Afm01 MIC50; for Afm01 MIC50: RPMI 1640 with MOPS
C. albicans ATCC 24433 = type: cell-based, Candida albicans; conditions: end point 48 hours; for MIC80 / MIC50: Candida albicans, ATCC24433, RPMI 1640 with MOPS; for MIC80: read-out: Ca01 A: MIC80; for MIC50: read-out: Ca01 B: MIC50; for Ca01 A: MIC80 / Ca01 B: MIC50: RPMI 1640 with MOPS
Protocol: as §1

C. krusei ATCC 6258 = type: cell-based; conditions: end point 48 hours; for MIC50: Pichia kudriavzevii, ATCC6258, RPMI 1640 with MOPS, read-out: Ck01 MIC50; for Ck01 MIC50: RPMI 1640 with MOPS
C. glabrata ATCC 90030 = type: cell-based; conditions: end point 48 hours; for MIC50: Nakaseomyces glabratus, ATCC90030, RPMI 1640 with MOPS, read-out: Cg01 MIC50; for Cg01 MIC50: RPMI 1640 with MOPS
C. neoformans ATCC 34664 = type: cell-based; conditions: end point 48 hours; for MIC50: Cryptococcus neoformans, ATCC34664, RPMI 1640 with MOPS, read-out: Cn01 MIC50; for Cn01 MIC50: RPMI 1640 with MOPS
C. tropicalis ATCC 750 = type: cell-based; conditions: end point 48 hours; for MIC50: Candida tropicalis, ATCC750, RPMI 1640 with MOPS, read-out: Ct01 MIC50; for Ct01 MIC50: RPMI 1640 with MOPS
A. niger ATCC 16404 = type: cell-based, Aspergillus niger; conditions: end point 48 hours; for MIC50: Aspergillus niger, ATCC16404, RPMI 1640 with MOPS, read-out: An01 MIC50; for An01 MIC50: RPMI 1640 with MOPS
Protocol: as §1

Row | SMILES | MIC50 [1] [µg/mL] | MIC50 (A. fumigatus ATCC 46645) [µg/mL] | MIC80 (C. albicans ATCC 24433) [µg/mL] | MIC50 (C. albicans ATCC 24433) [µg/mL] | MIC50 (C. krusei ATCC 6258) [µg/mL] | MIC50 (C. glabrata ATCC 90030) [µg/mL] | MIC50 (C. neoformans ATCC 34664) [µg/mL] | MIC50 (C. tropicalis ATCC 750) [µg/mL] | MIC50 (A. niger ATCC 16404) [µg/mL] | Fp01 MIC50 [1] [µg/mL] | Afm01 MIC50 (A. fumigatus ATCC 46645) [µg/mL] | Ca01 A: MIC80 (C. albicans ATCC 24433) [µg/mL] | Ca01 B: MIC50 (C. albicans ATCC 24433) [µg/mL] | Ck01 MIC50 (C. krusei ATCC 6258) [µg/mL] | Cg01 MIC50 (C. glabrata ATCC 90030) [µg/mL] | Cn01 MIC50 (C. neoformans ATCC 34664) [µg/mL] | Ct01 MIC50 (C. tropicalis ATCC 750) [µg/mL] | An01 MIC50 (A. niger ATCC 16404) [µg/mL]
1 | OC(COc1ccc(C2=NNC(c3ccc(Cl)cc3Cl)C2)cc1)(Cn1cncn1)c1ccc(F)cc1F (stereo not drawn) [Compound 1E-1, 1-(4-(5-(2,4-dichlorophenyl)-4,5-dihydro-1H-pyrazol-3-yl)phenoxy)-2-(2,4-difluorophenyl)-3-(1H-1,2,4-triazol-1-yl)propan-2-ol] | > 8 | > 8 | 0.25 (≈ 0.459 µM) | 0.25 (≈ 0.459 µM) | > 8 | 2 (≈ 3.67 µM) | 2 (≈ 3.67 µM) | 1 (≈ 1.84 µM) | > 8 | – | – | – | – | – | – | – | – | –
2 | C[C@@H]1[C@H](O)[C@@H](C)/C=C/C=C/C=C/C=C/C=C/C=C/C=C/[C@H](O[C@@H]2O[C@H](C)[C@@H](O)[C@H](N)[C@@H]2O)C[C@@H]2O[C@](O)(C[C@@H](O)C[C@@H](O)[C@H](O)CC[C@@H](O)C[C@@H](O)CC(=O)O[C@H]1C)C[C@H](O)[C@H]2C(=O)O [AMB, amphotericin-B, reference compound] | – | – | – | – | – | – | – | – | – | 2 | 0.5 | 0.25 | 0.25 | 0.5 | 0.25 | 0.5 | 0.5 | 0.25
3 | CCCCCCCCOc1ccc(/C=C/C(=O)c2ccc(OCC(O)(Cn3cncn3)c3ccc(F)cc3F)cc2)cc1 (stereo not drawn) [Compound 1A-9] | – | – | – | – | – | – | – | – | – | >2 | >2 | >2 | >2 | >2 | >2 | >2 | >2 | >2
4 | O=C(/C=C/c1ccc(Cl)cc1)c1ccc(OC[C@](O)(Cn2cncn2)c2ccc(F)cc2F)cc1 [R-(−)-1A-6, R-(−)-(E)-3-(4-chlorophenyl)-1-(4-(2-(2,4-difluorophenyl)-2-hydroxy-3-(1H-1,2,4-triazol-1-yl)propoxy)phenyl)prop-2-en-1-one] | > 4 | > 4 | 0.12 (≈ 0.242 µM) | 0.06 (≈ 0.121 µM) | 1 (≈ 2.02 µM) | 0.12 (≈ 0.242 µM) | 0.25 (≈ 0.504 µM) | 0.5 (≈ 1.01 µM) | > 4 | – | – | – | – | – | – | – | – | –
5 | C=CCOC(COc1ccc(C(=O)/C=C/c2ccc(Cl)cc2Cl)cc1)(Cn1cncn1)c1ccc(F)cc1F (stereo not drawn) [Compound 1A-18, (E)-1-(4-(2-(Allyloxy)-2-(2,4-difluorophenyl)-3-(1H-1,2,4-triazol-1-yl)propoxy)phenyl)-3-(2,4-dichlorophenyl)prop-2-en-1-one] | > 4 | > 4 | > 4 | > 4 | > 4 | > 4 | > 4 | > 4 | > 4 | – | – | – | – | – | – | – | – | –

The remaining lines, values ahead:

Row | MIC50 [1] [µg/mL] | MIC50 (A. fumigatus ATCC 46645) [µg/mL] | MIC80 (C. albicans ATCC 24433) [µg/mL] | MIC50 (C. albicans ATCC 24433) [µg/mL] | MIC50 (C. krusei ATCC 6258) [µg/mL] | MIC50 (C. glabrata ATCC 90030) [µg/mL] | MIC50 (C. neoformans ATCC 34664) [µg/mL] | MIC50 (C. tropicalis ATCC 750) [µg/mL] | MIC50 (A. niger ATCC 16404) [µg/mL] | Fp01 MIC50 [1] [µg/mL] | Afm01 MIC50 (A. fumigatus ATCC 46645) [µg/mL] | Ca01 A: MIC80 (C. albicans ATCC 24433) [µg/mL] | Ca01 B: MIC50 (C. albicans ATCC 24433) [µg/mL] | Ck01 MIC50 (C. krusei ATCC 6258) [µg/mL] | Cg01 MIC50 (C. glabrata ATCC 90030) [µg/mL] | Cn01 MIC50 (C. neoformans ATCC 34664) [µg/mL] | Ct01 MIC50 (C. tropicalis ATCC 750) [µg/mL] | An01 MIC50 (A. niger ATCC 16404) [µg/mL] | SMILES
6 | > 2 | > 2 | 0.12 (≈ 0.26 µM) | 0.06 (≈ 0.13 µM) | > 2 | 0.25 (≈ 0.542 µM) | 1 (≈ 2.17 µM) | 0.5 (≈ 1.08 µM) | > 2 | – | – | – | – | – | – | – | – | – | O=C(/C=C/c1ccccc1)c1ccc(OCC(O)(Cn2cncn2)c2ccc(F)cc2F)cc1 (stereo not drawn) [Compound 1A-1]
7 | > 4 | 8 (≈ 16.8 µM) | 0.25 (≈ 0.526 µM) | 0.12 (≈ 0.252 µM) | 2 (≈ 4.21 µM) | 0.25 (≈ 0.526 µM) | 1 (≈ 2.1 µM) | 1 (≈ 2.1 µM) | > 4 | – | – | – | – | – | – | – | – | – | Cc1ccc(C(=O)/C=C/c2ccc(OCC(O)(Cn3cncn3)c3ccc(F)cc3F)cc2)cc1 (stereo not drawn) [Compound 1A-21]
8 | > 4 | > 4 | 1 (≈ 1.81 µM) | 0.25 (≈ 0.453 µM) | > 4 | 1 (≈ 1.81 µM) | > 4 | 1 (≈ 1.81 µM) | > 4 | – | – | – | – | – | – | – | – | – | COc1cc(/C=C/C(=O)c2ccc(OCC(O)(Cn3cncn3)c3ccc(F)cc3F)cc2)cc(OC)c1OC (stereo not drawn) [Compound 1A-5]
9 | > 4 | > 4 | 0.5 (≈ 1.07 µM) | 0.25 (≈ 0.535 µM) | > 4 | 0.25 (≈ 0.535 µM) | 4 (≈ 8.56 µM) | 2 (≈ 4.28 µM) | > 4 | – | – | – | – | – | – | – | – | – | O=C(/C=C/c1cccs1)c1ccc(OC[C@@](O)(Cn2cncn2)c2ccc(F)cc2F)cc1 [S-(+)-1A-13]
10 | > 4 | > 4 | 0.12 (≈ 0.257 µM) | 0.03 (≈ 0.0642 µM) | 2 (≈ 4.28 µM) | 0.03 (≈ 0.0642 µM) | 0.5 (≈ 1.07 µM) | 0.12 (≈ 0.257 µM) | > 4 | – | – | – | – | – | – | – | – | – | O=C(/C=C/c1cccs1)c1ccc(OC[C@](O)(Cn2cncn2)c2ccc(F)cc2F)cc1 [R-(−)-1A-13]
